Columns and labels:
Assay in all cases: relative viability (nuclei count vs DMSO), 5 days (fraction); higher = more cells survive
Bortezomib + Phenformin = compound: CC(C)C[C@H](NC(=O)[C@H](Cc1ccccc1)NC(=O)c1cnccn1)B(O)O [Bortezomib] + N=C(N)NC(=N)NCCc1ccccc1 [Phenformin] (partner 250 µM)
In short: (§1)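 The day after seeding in 1536-well plates, lung cancer cell lines were treated by pin tool with a single drug, or with a fixed anchor-drug dose together with five library-drug doses (not always all listed) in √10 steps. After 5 days, a combined fix-and-stain solution (final 0.05% Triton X-100, 1% formaldehyde, 1 ug/ml Hoechst) was added. Nuclei counted on 4× images gave relative viability as treated counts over vehicle counts, reported as the median of duplicate plates.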

Obatoclax + Palbociclib = compound: COC1=CC(c2cc3ccccc3[nH]2)=N/C1=C\c1[nH]c(C)cc1C [Obatoclax] + CC(=O)c1c(C)c2cnc(Nc3ccc(N4CCNCC4)cn3)nc2n(C2CCCC2)c1=O [Palbociclib] (partner 0.5 µM)
In short: as §1

[1] = compound: CC1=CC(=NN1)NC2=CC(=NC(=N2)/C=C/C3=CC=CC=C3)N4CCN(CC4)C + CC(C)C[C@H](NC(=O)[C@H](Cc1ccccc1)NC(=O)c1cnccn1)B(O)O [Bortezomib] (partner 0.002 µM)
In short: as §1

Obatoclax + Crizotinib = compound: COC1=CC(c2cc3ccccc3[nH]2)=N/C1=C\c1[nH]c(C)cc1C [Obatoclax] + C[C@@H](Oc1cc(-c2cnn(C3CCNCC3)c2)cnc1N)c1c(Cl)ccc(F)c1Cl [Crizotinib] (partner 1 µM)
In short: as §1

Cell Line	relative viability (Bortezomib + Phenformin; first compound 0.0002 µM)	relative viability (Bortezomib + Phenformin; first compound 0.000632 µM)	relative viability (Bortezomib + Phenformin; first compound 0.002 µM)	relative viability (Bortezomib + Phenformin; first compound 0.006325 µM)	relative viability (Bortezomib + Phenformin; first compound 0.02 µM)	relative viability (Obatoclax + Palbociclib; first compound 0.01 µM)	relative viability (Obatoclax + Palbociclib; first compound 0.03162 µM)	relative viability (Obatoclax + Palbociclib; first compound 0.1 µM)	relative viability (Obatoclax + Palbociclib; first compound 0.3162 µM)	relative viability (Obatoclax + Palbociclib; first compound 1 µM)	relative viability ([1]; first compound 0.08 µM)	relative viability ([1]; first compound 0.253 µM)	relative viability ([1]; first compound 0.8 µM)	relative viability ([1]; first compound 2.53 µM)	relative viability ([1]; first compound 8 µM)	relative viability (Obatoclax + Crizotinib; first compound 0.01 µM)	relative viability (Obatoclax + Crizotinib; first compound 0.03162 µM)	relative viability (Obatoclax + Crizotinib; first compound 0.1 µM)	relative viability (Obatoclax + Crizotinib; first compound 0.3162 µM)	relative viability (Obatoclax + Crizotinib; first compound 1 µM)
NCI-H2087	0.451	0.441	0.312	0.0487	0.0431	0.212	0.216	0.183	0.231	0.116	0.792	1.03	0.818	0.648	0.11	0.818	0.864	0.83	0.768	0.294
HCC-366	0.621	0.542	0.629	0.578	0.0354	0.401	0.34	0.311	0.304	0.203	0.993	1.18	1.03	0.0189	0.0155	0.63	0.554	0.468	0.533	0.354
NCI-H2126	0.528	0.534	0.538	0.34	0.256	0.34	0.34	0.376	0.356	0.337	1.07	1.14	1.19	1.09	1.02	1.06	0.987	0.952	1.02	0.965
SK-LU-1	0.561	0.499	0.467	0.122	0.0951	0.367	0.419	0.352	0.326	0.317	1.1	1.28	1.01	0.429	0.195	1.03	0.836	0.761	0.403	0.339
HCC-78	0.699	0.641	0.676	0.712	0.364	0.438	0.45	0.506	0.479	0.457	0.456	0.636	0.582	0.559	0.214	0.326	0.34	–	0.317	0.314
LCLC-97TM1	0.426	0.403	0.433	0.257	0.159	0.193	0.223	0.204	0.199	0.25	0.742	0.57	0.77	0.114	0.0579	0.452	0.27	0.339	0.329	0.358

— the supplement of paper PMC10307832
